Calls of active or inactive are those of the source. The rule behind the calls is not given here.
What was measured:
[1] = rat, in vivo, po, 10 mg/kg, 24 h
[2] = test system: HepG2; assay: Cytotoxicity against human HepG2 cells; assay type: cell-based
[3] = human, plasma
[4] = rat, in vivo, po, 10 mg/kg, 24 h; remark: listed apart in the source
[5] = target: Albumin (Bos taurus, UniProt P02769); assay: Binding affinity to bovine serum albumin by Albumax assay; assay type: ADME; settings: cattle, isolated protein
Chain of Albumin (P02769 whole entry): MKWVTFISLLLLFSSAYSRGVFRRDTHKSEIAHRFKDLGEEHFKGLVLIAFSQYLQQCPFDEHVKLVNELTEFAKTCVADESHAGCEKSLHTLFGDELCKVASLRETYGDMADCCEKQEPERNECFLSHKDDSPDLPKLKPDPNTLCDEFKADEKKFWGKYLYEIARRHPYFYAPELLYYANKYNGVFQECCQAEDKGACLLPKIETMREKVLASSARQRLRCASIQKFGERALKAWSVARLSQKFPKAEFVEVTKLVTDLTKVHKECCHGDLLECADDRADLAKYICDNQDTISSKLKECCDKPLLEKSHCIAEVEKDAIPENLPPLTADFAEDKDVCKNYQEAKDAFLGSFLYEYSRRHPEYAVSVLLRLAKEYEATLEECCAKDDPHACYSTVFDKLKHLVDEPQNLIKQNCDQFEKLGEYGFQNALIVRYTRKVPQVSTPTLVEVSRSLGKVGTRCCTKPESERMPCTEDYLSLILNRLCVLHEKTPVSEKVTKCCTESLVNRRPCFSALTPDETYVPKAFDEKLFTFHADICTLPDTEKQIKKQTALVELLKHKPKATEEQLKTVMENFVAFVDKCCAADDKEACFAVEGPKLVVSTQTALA

[6] = Oral bioavailability in Swiss mouse at 24 mg/kg measured up to 24 hrs by LC-MS analysis; assay type: ADME, organism-based; settings: in vivo
[7] = target: Dihydroorotate dehydrogenase (quinone), mitochondrial (Mus musculus, UniProt O35435); assay: Inhibition of mouse DHODH up to 100 uM; settings: up to 100 µM
Chain of Dihydroorotate dehydrogenase (quinone), mitochondrial (O35435 whole entry): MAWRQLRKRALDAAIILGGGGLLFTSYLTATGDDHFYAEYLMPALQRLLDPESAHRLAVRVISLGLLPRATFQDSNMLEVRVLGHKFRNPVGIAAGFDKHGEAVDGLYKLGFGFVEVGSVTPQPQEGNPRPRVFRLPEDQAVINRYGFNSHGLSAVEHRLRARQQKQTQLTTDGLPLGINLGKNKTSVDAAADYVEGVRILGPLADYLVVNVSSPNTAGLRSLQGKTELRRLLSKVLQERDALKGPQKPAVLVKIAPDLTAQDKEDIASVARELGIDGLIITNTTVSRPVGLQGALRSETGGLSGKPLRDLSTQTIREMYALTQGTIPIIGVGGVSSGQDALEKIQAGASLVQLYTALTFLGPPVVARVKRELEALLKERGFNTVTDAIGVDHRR

[8] = Cmax in Sprague-Dawley rat at 17 mg/kg, po measured up to 24 hrs; assay type: ADME, organism-based; parameters: route oral, dose 17 mg/kg, time <=24; settings: in vivo
[9] = test system: Plasmodium falciparum
[10] = test system: Plasmodium falciparum; assay: Antiplasmodial activity against asexual blood stage Plasmodium falciparum D10 expressing yeast DHODH infected in human erythrocytes assessed as parasite killing; assay type: functional, organism-based
[11] = mouse, plasma
[12] = test system: L1210; assay: Cytotoxicity against mouse L1210 cells; assay type: cell-based
[13] = Apparent half life in Sprague-Dawley rat at 17 mg/kg, po measured up to 24 hrs; assay type: ADME, organism-based; settings: in vivo, read-out: t1/2(app) (converted)
[14] = test system: Plasmodium falciparum; assay: Antiplasmodial activity against Plasmodium falciparum 3D7 Uganda infected in human erythrocytes assessed as parasite killing using albumax media measured after 72 hrs by SYBR Green assay; assay type: functional, organism-based; settings: 3D7, 72 h
[15] = in vivo; settings: Swiss, mouse, po
[16] = Unbound AUC in orally dosed NOD-SCID IL2Rgamma null mouse infected with Plasmodium falciparum 3D70087/N9 administered days after 3 post infection once daily for 4 days measured on day 7 by flow cytometry; assay type: ADME, organism-based; settings: in vivo, po, 96 h, time 4 day
[17] = AUC (0 to infinity) in Swiss mouse at 24 mg/kg, po measured up to 24 hrs by LC-MS analysis; assay type: ADME, organism-based; parameters: route oral, dose 24 mg/kg, time <=24; settings: in vivo
[18] = Binding affinity to microsome (unknown origin); assay type: ADME; settings: microsomes
[19] = Half life in Swiss mouse at 24 mg/kg, po measured up to 24 hrs by LC-MS analysis; assay type: ADME, organism-based; settings: in vivo
[20] = target: Cytochrome P450 3A4 (Homo sapiens, UniProt P08684)
Chain of Cytochrome P450 3A4 (P08684 whole entry): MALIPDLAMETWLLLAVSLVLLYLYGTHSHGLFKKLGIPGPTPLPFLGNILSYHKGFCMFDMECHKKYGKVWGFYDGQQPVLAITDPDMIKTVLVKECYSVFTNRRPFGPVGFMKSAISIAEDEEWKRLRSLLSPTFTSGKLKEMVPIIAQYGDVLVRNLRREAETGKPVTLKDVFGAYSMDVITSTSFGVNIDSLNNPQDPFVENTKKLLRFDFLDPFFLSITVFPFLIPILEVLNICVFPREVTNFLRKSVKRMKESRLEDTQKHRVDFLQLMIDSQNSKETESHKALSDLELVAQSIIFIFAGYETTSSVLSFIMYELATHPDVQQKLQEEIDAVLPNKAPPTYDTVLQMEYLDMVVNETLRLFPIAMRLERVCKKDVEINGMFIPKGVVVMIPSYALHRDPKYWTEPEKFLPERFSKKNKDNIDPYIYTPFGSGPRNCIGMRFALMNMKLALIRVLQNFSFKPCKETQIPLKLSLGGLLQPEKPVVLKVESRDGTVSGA

[21] = Volume of distribution at steady state in Sprague-Dawley rat at […], iv measured up to 24 hrs; assay type: ADME, organism-based; settings: in vivo, dose 1.8 mg/kg, read-out: Vdss
[22] = Half life in Swiss mouse at […], po measured up to 24 hrs by LC-MS analysis; assay type: ADME, organism-based; settings: in vivo, dose 2.6 mg/kg
[23] = Unbound intrinsic clearance in mouse liver microsomes at 1 uM measured up to 4 hrs by LC-MS analysis; assay type: ADME, Microsome
[24] = Cmax in Swiss mouse at 24 mg/kg, po measured up to 24 hrs by LC-MS analysis; assay type: ADME, organism-based; parameters: route oral, dose 24 mg/kg, time <=24; settings: in vivo
[25] = human, caco-2, pH 7.4
[26] = rat, plasma
[27] = in vivo; settings: Sprague-Dawley, rat, po, 17 mg/kg
[28] = Inhibition of dog DHODH up to 100 uM; parameters: species or system Canis lupus familiaris; settings: up to 100 µM
[29] = Oral bioavailability in Sprague-Dawley rat at 17 mg/kg measured up to 24 hrs; assay type: ADME, organism-based; settings: in vivo
[30] = target: T1, Cytochrome P450 2C8 (Homo sapiens, UniProt P10632)
T1 sequence (P10632 whole entry): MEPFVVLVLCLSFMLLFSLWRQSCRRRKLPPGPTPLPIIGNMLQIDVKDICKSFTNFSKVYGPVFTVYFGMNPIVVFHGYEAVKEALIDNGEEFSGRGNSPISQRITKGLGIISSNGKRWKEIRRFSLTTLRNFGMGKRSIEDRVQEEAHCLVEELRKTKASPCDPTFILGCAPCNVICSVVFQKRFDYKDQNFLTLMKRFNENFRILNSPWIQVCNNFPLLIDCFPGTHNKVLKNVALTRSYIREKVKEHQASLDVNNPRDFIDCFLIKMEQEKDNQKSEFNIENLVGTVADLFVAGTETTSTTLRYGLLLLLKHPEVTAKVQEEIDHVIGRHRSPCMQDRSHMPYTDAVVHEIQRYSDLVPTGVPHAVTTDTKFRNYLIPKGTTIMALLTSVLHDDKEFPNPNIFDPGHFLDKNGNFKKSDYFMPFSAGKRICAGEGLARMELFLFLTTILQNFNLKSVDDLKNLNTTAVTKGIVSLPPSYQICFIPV

[31] = test system: Plasmodium falciparum; assay: Antimalarial activity against Plasmodium falciparum 3D70087/N9 infected in orally dosed NOD-SCID IL2Rgamma null mouse assessed as parasitemia level in human red blood cells at 50 mg/kg, po administered days after 1 day post infection twice daily for 6 days measured on day 7 by flow cytometry; assay type: functional, organism-based; settings: time 6.0 day
[32] = rat, in vivo, po, 10 mg/kg, 24 h; remark: listed apart in the source
[33] = test system: Plasmodium falciparum; assay: Antiplasmodial activity against asexual blood stage Plasmodium falciparum D10 expressing yeast DHODH infected in human erythrocytes assessed as parasite killing in presence of proguanil; assay type: functional, organism-based
[34] = target: T2, Cytochrome P450 2B6 (Homo sapiens, UniProt P20813)
T2 sequence (P20813 whole entry): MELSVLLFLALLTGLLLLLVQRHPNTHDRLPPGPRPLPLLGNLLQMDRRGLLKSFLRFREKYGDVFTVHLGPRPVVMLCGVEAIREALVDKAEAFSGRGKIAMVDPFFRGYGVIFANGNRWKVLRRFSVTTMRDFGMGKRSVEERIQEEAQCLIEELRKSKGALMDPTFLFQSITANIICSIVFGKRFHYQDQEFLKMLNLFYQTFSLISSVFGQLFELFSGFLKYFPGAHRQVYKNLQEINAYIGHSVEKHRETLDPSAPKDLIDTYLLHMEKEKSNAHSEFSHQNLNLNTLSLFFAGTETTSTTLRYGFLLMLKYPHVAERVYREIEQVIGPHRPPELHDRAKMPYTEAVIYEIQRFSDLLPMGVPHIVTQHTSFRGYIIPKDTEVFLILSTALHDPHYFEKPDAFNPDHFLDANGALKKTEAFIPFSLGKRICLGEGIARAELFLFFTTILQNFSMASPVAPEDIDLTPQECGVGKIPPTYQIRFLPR

[35] = Volume of distribution at steady state in Swiss mouse at […], iv measured up to 24 hrs by LC-MS analysis; assay type: ADME, organism-based; settings: in vivo, dose 2.3 mg/kg, read-out: Vdss
[36] = rat, in vivo, po, 10 mg/kg, 24 h; remark: listed apart in the source

Cc1c(C2(c3ccc(C(F)(F)F)nc3)CC2)c[nH]c1C(=O)NC(C)c1nc[nH]n1 (stereo in doubt; form 1)
AUC [1]: 47 µM·h | Activity [2]: Non-Toxic | PPB [3]: 92.8% | t1/2(app) [4]: 5.9 h | Activity [5]: 71.9% | F [6]: 70% | inhibition (INH) [7]: Not Active | Cmax [8]: 14 µM | EC50 [9]: 0.17 µM | EC50 [10]: > 10 µM | PPB [11]: 92.1% | Activity [12]: Non-Toxic | half-life [13]: 3.7 h | EC50 [14]: 0.0075 µM | Tmax at 24 h [15]: 4 h | fAUC [16]: 4.1 µM·h | AUC [17]: 250 µM·h | Activity [18]: 34.2% | t1/2 [19]: 4.5 h | TDI [20]: Not Active | Vd at 24 h [21]: 2.1 L/kg | half-life at 24 h [22]: 3.4 h | CL free [23]: 17 µL/min/mg | Cmax [24]: 20 µM | Papp [25]: 70 10^-6 cm/s | PPB [26]: 94.3% | Tmax at 24 h [27]: 2.5 h | inhibition (INH) [28]: Not Active | bioavailability [29]: 110% | IC50 [30]: > 20 µM | Activity [31]: Active | F [32]: 77% | EC50 [33]: > 10 µM | IC50 [34]: > 20 µM | Vd at 24 h [35]: 1.3 L/kg | Cmax [36]: 6 µM

Source: ChEMBL document CHEMBL4811258, “Potent Antimalarials with Development Potential Identified by Structure-Guided Computational Optimization of a Pyrrole-Based Dihydroorotate Dehydrogenase Inhibitor Series” (J Med Chem, 2021)
